The values that follow come from patent US12527817B2, “Manufacturing of selenium disulfide compositions” (Azura Ophthalmics Ltd., priority 2020, dated 2026).

The nature of the series: Particle size analysis under a microscope (400x magnification). The series is classed as physicochemical. Particulars: mixing liquid petrolatum at 60° C. with micronized SeS2, 400× microscope magnification. Here is the method:
FIG. 4 illustrates SeS2 formulation obtained mixing liquid petrolatum at a temperature of 60° C. with micronized SeS2 at 400× microscope magnification showing the presence of SeS2 particles larger than 25 microns.
FIG. 3 illustrates a 1% SeS2 (w/w) formulation obtained using the low temperature process.
The active ingredient was SeS2, wherein the particle size distribution D90 is less than 10 microns. The base medium was USP grade petrolatum. A reaction vessel capable of accepting a high shear mixing apparatus was charged with the USP grade petrolatum. In order to create uniform particles distribution in the petrolatum, high shear mixing was applied to disperse the particles. Addition of the active ingredients to the bulk while the whole bulk is agitated is essential in order to properly disperse the active ingredient, the high shear head was used to break the agglomerates to primary particles creating a uniform and homogeneous paste.

`S=[Se]=S` [SeS2, selenium disulfide]: the SeS2 particle size result is reported as “over 25 microns”.
